Source: ChEMBL document CHEMBL1151363, “Chemical composition and biological activity of the Tanzanian plant Ocimum suave” (1981)
Converted amounts (≈) assume the structure as drawn.

Tests used:
Format in all cases: functional
Escherichia coli = assay: Antimicrobial activity against Escherichia coli UNSWO24101 after 48 hrs
Micrococcus luteus = assay: Antimicrobial activity against Micrococcus luteus ATCC 9341 after 48 hrs; settings: ATCC 9341, 48 h
Staphylococcus aureus = assay: Antimicrobial activity against Staphylococcus aureus ATCC 6538 after 48 hrs; settings: ATCC 6538, 48 h
Saccharomyces cerevisiae = assay: Antimicrobial activity against Saccharomyces cerevisiae UNSA Y-40 after 48 hrs

C=CCc1ccc(O)c(OC)c1 [EUGENOL]
MIC (Escherichia coli): 600 µg/mL (≈ 3.65 mM) | MIC (Micrococcus luteus): 600 µg/mL (≈ 3.65 mM) | MIC (Staphylococcus aureus): 700 µg/mL (≈ 4.26 mM) | MIC (Saccharomyces cerevisiae): 400 µg/mL (≈ 2.44 mM)
